Laboratory results: ChEMBL document CHEMBL4219041, “Improving oral bioavailability of cyclic peptides by N-methylation” (Bioorg Med Chem, 2018)
Square brackets hold non-standard residues; d marks the D form. Peptide text beside a SMILES is read from it. dNMeW = CN[C@H](Cc1c[nH]c2ccccc12)C(=O)O; NMeF = CN[C@@H](Cc1ccccc1)C(=O)O; NMeK = CN[C@@H](CCCCN)C(=O)O

Assays:
[1] = Efflux ratio of apparent permeability from basolateral to apical over apical to basolateral side in human Caco2 cells; format: ADME, cell-based; conditions: Caco-2
[2] = Oral bioavailability in rat at 10 mg/kg; format: ADME, organism-based; conditions: in vivo

SMILES: C[C@@H]1NC(=O)[C@H](C)NC(=O)[C@@H](C)N(C)C(=O)[C@H](C)N(C)C(=O)[C@H](C)NC(=O)[C@H](C)NC1=O
- efflux ratio [1]: 2.05

SMILES: C[C@@H]1NC(=O)[C@H](C)NC(=O)[C@@H](C)N(C)C(=O)[C@H](C)NC(=O)[C@H](C)N(C)C(=O)[C@H](C)NC1=O
- efflux ratio [1]: 1.93

SMILES: C[C@@H]1NC(=O)[C@H](C)N(C)C(=O)[C@H](C)N(C)C(=O)[C@H](C)NC(=O)[C@H](C)N(C)C(=O)[C@@H](C)N(C)C1=O
- efflux ratio [1]: 1.97

SMILES: C[C@@H]1NC(=O)[C@H](C)N(C)C(=O)[C@H](C)N(C)C(=O)[C@H](C)NC(=O)[C@@H](C)N(C)C(=O)[C@H](C)N(C)C1=O
- efflux ratio [1]: 0.08

SMILES: C[C@@H](O)[C@@H]1NC(=O)[C@H](CCCCN)N(C)C(=O)[C@@H](Cc2c[nH]c3ccccc23)N(C)C(=O)[C@H](Cc2ccccc2)NC(=O)[C@@H]2CCCN2C(=O)[C@H](Cc2ccccc2)N(C)C1=O (cyclo(F[dNMeW][NMeK]T[NMeF]P))
- bioavailability [2]: 10%
